Experimental data reported in patent publication US20060069132A1, “Azolecarboxamide herbicides” (priority 2004, published 2006).
Where two headings read alike, the source gives them in different places.

Experiments:
[1] = system: soybean; experiment: Test C pre-/postemergence herbicide test; type: in vivo, Glycine max
Method in brief: (§1)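 Pre/post spray; non-phytotoxic solvent + surfactant. Post-timing 1–4 leaves, 2–18 cm. Read-out: visual % control vs untreated, day 12–14, greenhouse.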

[2] = system: barnyardgrass; experiment: Test C flooded paddy test; type: in vivo, Echinochloa crus-galli; conditions: Echinochloa crus-galli
Method in brief: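 Ratings (0 = no effect, 100 = complete control) come from visual comparison with untreated plants after 12 to 14 days in the greenhouse. Treatment was postemergence at the 1- to 4-leaf stage (2–18 cm), or at the 2-leaf stage for the flooded paddy barnyardgrass.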

[3] = system: common (oilseed) sunflower; experiment: Test C pre-/postemergence herbicide test; type: in vivo, Helianthus annuus
Method in brief: as §1

[4] = system: ducksalad; experiment: Test C flooded paddy test; type: in vivo, Heteranthera limosa; conditions: Heteranthera limosa
[5] = system: giant foxtail; experiment: Test A pre-/postemergence herbicide test; type: in vivo, Setaria faberi; conditions: Setaria faberi, 240 h; for pest or weed control at 500 g/ha: 500 g ai/ha; for pest or weed control at 2000 g/ha: 2000 g ai/ha
Method in brief: (§2)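 Greenhouse injury scoring (0–100, complete control = 100) at approximately ten days follows simultaneous pre- and postemergence application. Soil received a directed spray after seeding; seedlings of 2–10 cm at the one- to two-leaf stage were sprayed to runoff.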

[6] = system: bermudagrass; experiment: Test C pre-/postemergence herbicide test; type: in vivo, Cynodon dactylon
Method in brief: as §1

[7] = system: lambsquarters; experiment: Test C pre-/postemergence herbicide test; type: in vivo, Chenopodium album
Method in brief: as §1

[8] = system: giant foxtail; experiment: Test C pre-/postemergence herbicide test; type: in vivo, Setaria faberi
Method in brief: as §1

[9] = system: barnyardgrass; experiment: Test A pre-/postemergence herbicide test; type: in vivo, Echinochloa crus-galli; conditions: Echinochloa crus-galli, 240 h; for pest or weed control at 500 g/ha: 500 g ai/ha; for pest or weed control at 2000 g/ha: 2000 g ai/ha
Method in brief: as §2

[10] = system: kochia; experiment: Test C pre-/postemergence herbicide test; type: in vivo, Kochia scoparia
Method in brief: as §1

[11] = system: large crabgrass; experiment: Test A pre-/postemergence herbicide test; type: in vivo, Digitaria sanguinalis; conditions: Digitaria sanguinalis, 240 h; for pest or weed control at 500 g/ha: 500 g ai/ha; for pest or weed control at 2000 g/ha: 2000 g ai/ha
Method in brief: as §2

[12] = system: large crabgrass; experiment: Test C pre-/postemergence herbicide test; type: in vivo, Digitaria sanguinalis
Method in brief: as §1

[13] = system: rice; experiment: Test C flooded paddy test; type: in vivo, Oryza sativa; conditions: Oryza sativa
Method in brief: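 Plants were grown to the 1- to 4-leaf stage (2–18 cm) and then treated postemergence, or grown to the 2-leaf stage for the flooded paddy test. They were held in a greenhouse for 12 to 14 days and then scored by eye against controls, where 0 is no effect and 100 is complete control.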

[14] = Preemergence, 500 g ai/ha, scale 0 to 100, 0 no effect, 100 complete control
[15] = post-emergence, Postemergence, 0 to 100 scale, 0 no effect, 100 complete control, read-out: Plant response rating, Foxtail, Giant
[16] = post-emergence, Postemergence, 0 to 100 scale, 0 no effect, 100 complete control, read-out: Plant response rating, Barnyardgrass
[17] = post-emergence, Postemergence, 0 to 100 scale, 0 no effect, 100 complete control, read-out: Plant response rating, Crabgrass, Large

Which results are given for `CCNC(=O)c1ccc(F)c(NC(=O)c2cc(C(C)(C)C)nn2CC)c1` [Compound 2, 3-(1,1-dimethylethyl)-1-ethyl-N-[5-[(ethylamino)carbonyl]-2-fluorophenyl]-1H-pyrazole-5-carboxamide]?
Plant response rating (0 = no effect, 100 = complete control), Soybean ([1]; 62 g ai/ha, preemergence): 30; plant injury at 250 g/ha ([1]; Glycine max, pre-emergence, 250 g ai/ha, scale 0 to 100 (0 no effect, 100 complete control), visual, 12 to 14 days, read-out: Plant response rating, Soybean): 100%; Soybean plant response rating [1, 14]: 100; pest or weed control at 62 g/ha ([2]; 62 g ai/ha, scale 0 to 100 (0 no effect, 100 complete control), read-out: Barnyardgrass plant response rating): 15%; pest or weed control at 125 g/ha ([2]; 125 g ai/ha, scale of 0 to 100, 0 is no effect, 100 is complete control, read-out: Barnyardgrass plant response rating): 75%; pest or weed control at 250 g/ha ([2]; 250 g ai/ha, visual rating after 12 to 14 days, scale 0 to 100 (0 no effect, 100 complete control), read-out: Plant response rating, Barnyardgrass): 75%; pest or weed control at 500 g/ha ([2]; 500 g ai/ha, visual rating after 12 to 14 days, scale 0 to 100 (0 no effect, 100 complete control), read-out: Plant response rating, Barnyardgrass): 90%; Plant response rating (0 = no effect, 100 = complete control), Sunflower ([3]; 62 g ai/ha, preemergence): 0; pest or weed control at 250 g/ha ([3]; Helianthus annuus, pre-emergence, 250 g ai/ha, scale 0 to 100 (0 no effect, 100 complete control), visual, 12 to 14 days, read-out: Plant response rating, Sunflower): 0%; Sunflower plant response rating [3, 14]: 0; pest or weed control at 62 g/ha ([4]; 62 g ai/ha, scale 0 to 100 (0 no effect, 100 complete control), read-out: Ducksalad plant response rating): 80%; pest or weed control at 125 g/ha ([4]; 125 g ai/ha, scale of 0 to 100, 0 is no effect, 100 is complete control, read-out: Ducksalad plant response rating): 80%; pest or weed control at 250 g/ha ([4]; 250 g ai/ha, visual rating after 12 to 14 days, scale 0 to 100 (0 no effect, 100 complete control), read-out: Plant response rating, Ducksalad): 85%; pest or weed control at 500 g/ha ([4]; 500 g ai/ha, visual rating after 12 to 14 days, scale 0 to 100 (0 no effect, 100 complete control), read-out: Plant response rating, Ducksalad): 95%; pest or weed control at 500 g/ha [5, 15]: 95%; pest or weed control at 2000 g/ha [5, 15]: 100%; pest or weed control at 500 g/ha ([5]; pre-emergence, Preemergence, visual rating, 0 to 100 scale (0 no effect, 100 complete control), read-out: Foxtail, Giant plant response rating): 100%; pest or weed control at 2000 g/ha ([5]; pre-emergence, Preemergence, 0 to 100 scale, 0 no effect, 100 complete control, read-out: Foxtail, Giant plant response rating): 100%; Plant response rating (0 = no effect, 100 = complete control), Bermudagrass ([6]; 62 g ai/ha, preemergence): 85; pest or weed control at 125 g/ha ([6]; Cynodon dactylon, pre-emergence, 312 h, 125 g ai/ha, scale 0-100, read-out: Plant response rating, Bermudagrass): 90%; pest or weed control at 250 g/ha ([6]; Cynodon dactylon, pre-emergence, 312 h, 250 g ai/ha, scale 0 to 100 (0 no effect, 100 complete control), visual, 12 to 14 days, read-out: Plant response rating, Bermudagrass): 95%; pest or weed control at 500 g/ha ([6]; Cynodon dactylon, pre-emergence, 312 h, Preemergence, 500 g ai/ha, scale 0 to 100, 0 no effect, 100 complete control, read-out: Bermudagrass plant response rating): 95%; Plant response rating (0 = no effect, 100 = complete control), Lambsquarters ([7]; 62 g ai/ha, preemergence): 100; pest or weed control at 125 g/ha ([7]; Chenopodium album, pre-emergence, 125 g ai/ha, scale 0-100, read-out: Plant response rating, Lambsquarters): 100%; pest or weed control at 250 g/ha ([7]; Chenopodium album, pre-emergence, 250 g ai/ha, scale 0 to 100 (0 no effect, 100 complete control), visual, 12 to 14 days, read-out: Plant response rating, Lambsquarters): 100%; Lambsquarters plant response rating [7, 14]: 100; Plant response rating (0 = no effect, 100 = complete control), Foxtail, Giant ([8]; 62 g ai/ha, preemergence): 80; Foxtail, Giant plant response rating [8, 14]: 100; pest or weed control at 125 g/ha ([8]; Setaria faberi, pre-emergence, 312 h, 125 g ai/ha, scale 0-100, read-out: Plant response rating, Foxtail, Giant): 100%; pest or weed control at 250 g/ha ([8]; Setaria faberi, pre-emergence, 312 h, 250 g ai/ha, scale 0 to 100 (0 no effect, 100 complete control), visual, 12 to 14 days, read-out: Plant response rating, Foxtail, Giant): 100%; pest or weed control at 500 g/ha [9, 16]: 100%; pest or weed control at 2000 g/ha [9, 16]: 100%; pest or weed control at 500 g/ha ([9]; pre-emergence, Preemergence, visual rating, 0 to 100 scale (0 no effect, 100 complete control), read-out: Barnyardgrass plant response rating): 100%; pest or weed control at 2000 g/ha ([9]; pre-emergence, Preemergence, 0 to 100 scale, 0 no effect, 100 complete control, read-out: Barnyardgrass plant response rating): 100%; Plant response rating (0 = no effect, 100 = complete control), Kochia ([10]; 62 g ai/ha, preemergence): 100; pest or weed control at 125 g/ha ([10]; Bassia scoparia, pre-emergence, 125 g ai/ha, scale 0-100, read-out: Plant response rating, Kochia): 100%; pest or weed control at 250 g/ha ([10]; Bassia scoparia, pre-emergence, 250 g ai/ha, scale 0 to 100 (0 no effect, 100 complete control), visual, 12 to 14 days, read-out: Plant response rating, Kochia): 100%; Kochia plant response rating [10, 14]: 100; pest or weed control at 500 g/ha [11, 17]: 85%; pest or weed control at 2000 g/ha [11, 17]: 100%; pest or weed control at 500 g/ha ([11]; pre-emergence, Preemergence, visual rating, 0 to 100 scale (0 no effect, 100 complete control), read-out: Crabgrass, Large plant response rating): 100%; pest or weed control at 2000 g/ha ([11]; pre-emergence, Preemergence, 0 to 100 scale, 0 no effect, 100 complete control, read-out: Crabgrass, Large plant response rating): 100%; Plant response rating (0 = no effect, 100 = complete control), Crabgrass, Large ([12]; 62 g ai/ha, preemergence): 95; pest or weed control at 125 g/ha ([12]; Digitaria sanguinalis, pre-emergence, 312 h, 125 g ai/ha, scale 0-100, read-out: Plant response rating, Crabgrass, Large): 95%; pest or weed control at 250 g/ha ([12]; Digitaria sanguinalis, pre-emergence, 312 h, 250 g ai/ha, scale 0 to 100 (0 no effect, 100 complete control), visual, 12 to 14 days, read-out: Plant response rating, Crabgrass, Large): 100%; Crabgrass, Large plant response rating [12, 14]: 100; plant injury at 62 g/ha ([13]; 62 g ai/ha, scale 0 to 100 (0 no effect, 100 complete control), read-out: Rice plant response rating): 50%; plant injury at 125 g/ha ([13]; 125 g ai/ha, scale of 0 to 100, 0 is no effect, 100 is complete control, read-out: Rice plant response rating): 50%; plant injury at 250 g/ha ([13]; 250 g ai/ha, visual rating after 12 to 14 days, scale 0 to 100 (0 no effect, 100 complete control), read-out: Plant response rating, Rice): 65%; plant injury at 500 g/ha ([13]; 500 g ai/ha, visual rating after 12 to 14 days, scale 0 to 100 (0 no effect, 100 complete control), read-out: Plant response rating, Rice): 85%
